Literature values in US5594133A, “Crystalline acid addition salts of diastereomerically pure 1-(2,2-dimethylpropinonyloxy)-ethyl-3-cephem-4-carboxylate” (Hoechst Aktiengesellschaft, priority 1991, dated 1997).

Key:
[1] = EP-A-0 329 008
[2] = T. Nishimura et al., J. Antibiotics XL (1987) 81-90

Row | splitting by endogenous enzymes into the cephalosporin containing the free carboxyl group ([1]; after absorption) | enteral absorption ([1]; various animal species) | SMILES | influence of the stereochemistry in the 1-position of the ethyl ester group on enteral absorbability [2]
1 | split again rapidly and completely | absorbed well enterally | COCC1=C(C(=O)OC(C)OC(=O)C(C)(C)C)N2C(=O)C(NC(=O)/C(=N\O)c3csc(N)n3)[C@H]2SC1 (stereo partly drawn) [ester of the formula I, 1-(2,2-dimethylpropionyloxy)-ethyl 7-[2-(2-aminothiazol-4-yl)-2-(Z)-hydroxyimino-acetamido]-3-methoxymethyl-3-cephem-4-carboxylate] | 
2 |  |  | CC(OC(=O)OC1CCCCC1)OC(=O)C1=C(CSc2nnnn2CCN(C)C)CS[C@@H]2[C@H](NC(=O)Cc3csc(N)n3)C(=O)N12 (stereo partly drawn) [cefotiam-hexetil] | no influence on enteral absorbability
